Here are results for one compound from article PMC11284896 (Journal of Translational Internal Medicine, 2024).

The data set concerns the target T1, ABCG2 (Homo sapiens, UniProt Q9UNQ0).
T1 sequence (Q9UNQ0 1-655): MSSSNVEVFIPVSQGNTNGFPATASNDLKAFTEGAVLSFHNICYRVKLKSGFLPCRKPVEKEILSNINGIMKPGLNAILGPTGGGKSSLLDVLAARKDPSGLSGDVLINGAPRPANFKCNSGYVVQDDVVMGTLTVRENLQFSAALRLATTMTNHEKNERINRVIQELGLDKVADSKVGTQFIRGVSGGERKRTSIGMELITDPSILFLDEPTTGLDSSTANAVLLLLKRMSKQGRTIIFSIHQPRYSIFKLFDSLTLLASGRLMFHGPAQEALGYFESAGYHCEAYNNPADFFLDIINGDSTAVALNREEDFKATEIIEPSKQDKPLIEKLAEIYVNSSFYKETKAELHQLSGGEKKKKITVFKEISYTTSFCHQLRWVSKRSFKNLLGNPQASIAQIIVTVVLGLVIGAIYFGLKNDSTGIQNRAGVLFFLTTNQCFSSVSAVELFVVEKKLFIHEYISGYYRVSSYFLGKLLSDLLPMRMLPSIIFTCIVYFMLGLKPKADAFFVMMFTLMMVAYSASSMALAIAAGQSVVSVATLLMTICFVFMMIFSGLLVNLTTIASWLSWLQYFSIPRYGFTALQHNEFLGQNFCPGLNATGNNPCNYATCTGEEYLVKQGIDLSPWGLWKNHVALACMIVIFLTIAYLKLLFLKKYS

SMILES strings stand for the structures.

Consider `O=C1c2c(O)ccc(O)c2C(=O)c2c(NCCNCCO)ccc(NCCNCCO)c21` [mitoxantrone], for which the “radiolabelled substrate efflux and accumulation in ABCG2-overexpressing NCI-H460” value is “the efflux of [^3H]-mitoxantrone from cells overexpressed ABCG2 transporter was considerably diminished in the presence of RN486”.
